# Source: US8592448B2 (OSI Pharmaceuticals, LLC, priority 2008, dated 2013)
# pIC50: −log10 of the molar value.
# Columns and labels:
# [1] = test system: MKN45 cells; assay: MKN45 cell proliferation assay (CellTiter-Glo); type: cell-based; conditions: Homo sapiens, MKN-45, 72 h, MKN45 cell line, 3 days incubation, at least duplicate experiments, read-out: Prolif. IC50
# Protocol: The effect of inhibitors on the proliferation of MKN45 cells was determined using the following protocol. MKN45 cells were plated in Corning 3917 96-well white tissue culture treated plates in growth medium (RPMI, 10% FCS) at a density of 5000 cells/well in a total volume of 135 μL and incubated at 37° C., 5% CO2, 95% humidity overnight. The following day, one-tenth volume of a 10× concentration of compounds was added to the wells in an 8-point dilution series. The dilution series was composed of an initial 1:5 dilution of a 10 mM stock of compound in DMSO, followed by serial 1:4 dilutions in DMSO, then a 1:20 dilution in growth medium prior to the 1:10 dilution into the cell plate. Final DMSO concentration on the cells was 0.1%, there were control wells treated with both 0.1% DMSO and no DMSO. The typical dilution range is 10 μM to 0.6 nM. Once the compound was added to the cells, plates were incubated for 3 days at 37° C., 5% CO2 at 95% humidity. On the third day, after allowing all cells and reagents to come to room temperature, 25 μL of CellTiter-Glo reagent (Promega # G7573) was added to the wells. Plates were shaken on a platform for 10 minutes prior to reading luminescence for 0.1 seconds. The signal of the control wells was taken as 100% growth and growth inhibition was expressed as percent of control. IC50 values were determined from the percent of control data using a standard four-parameter model.
# (§1) The IC50 values of exemplary compounds of the present invention determined in a cell proliferation assay using the MKN45 cell line according to the procedures described herein in at least duplicate experiments are abbreviated as follows and are shown in Table 2: A, IC50≦0.1 μM; B, 0.1 μM<IC50≦1 μM; C, 1 μM<IC50≦10 μM; D, IC50>10 μM; ND, not determined. The Example # of Table 2 corresponds to the compound example number as illustrated in the Examples section.
# [2] = target: T1, phosphorylated c-MET (Homo sapiens, UniProt P08581); assay: c-MET cell mechanistic assay (phosphorylated c-MET in MKN45 cells); type: cell-based; conditions: MKN45 cell line, four hours incubation, phosphorylated c-MET levels, at least duplicate experiments; read-out: Met mech IC50
# T1 construct: endogenous in cells; host or cells: MKN45
# Protocol: The cellular activity of the compounds of the present invention may be determined by the following procedure. MKN45 cells were plated in Falcon 3072 96-well plates in growth media (RPMI, 10% FBS, 1% L-glutamine) at a density of 5000 cells/well and incubated at 37° C., 5% CO2 overnight. The following day, one-tenth volume of a 10× concentration of compounds was added to the wells in a 6-point dilution series. The dilutions series was composed of an initial 1:5 dilution in DMSO, followed by a 1:10 dilution in growth media, for a final DMSO concentration on cells of 0.5%. Control wells were treated with 0.5% DMSO. The typical range of dilution was 10 μM to 3 nM. Once compound was added to the cells, plates were incubated for four hours at 37° C., 5% CO2. Plates were then washed in PBS, and lysed in triton-based lysis buffer. Lysates were transferred to a precoated capture plate made by Biosource (Cat # KH00281). The phosphorylated c-MET levels were measured by incubating with a rabbit polyclonal antibody against phosphorylated c-MET ([pYpYpY1230/1234/1235]) followed by an anti-rabbit antibody conjugated to HRP. Signal was measured on a Wallac Victor plate reader at 450 nm. The DMSO signal of the control wells was defined as 100% and the percent of inhibition of phosphorylated c-Met was expressed as percent of control. IC50 values were determined from the percent of control data using a standard four-parameter model.
# as §1, with “in a c-MET cell mechanistic” for “in a cell proliferation”, “c-MET cell mechanistic assay using” for “a cell proliferation assay using”, “in Table 3: A, IC50≦0.1” for “in Table 2: A, IC50≦0.1”, “of Table 3 corresponds to” for “of Table 2 corresponds to”
# T1 sequence (P08581 25-1390): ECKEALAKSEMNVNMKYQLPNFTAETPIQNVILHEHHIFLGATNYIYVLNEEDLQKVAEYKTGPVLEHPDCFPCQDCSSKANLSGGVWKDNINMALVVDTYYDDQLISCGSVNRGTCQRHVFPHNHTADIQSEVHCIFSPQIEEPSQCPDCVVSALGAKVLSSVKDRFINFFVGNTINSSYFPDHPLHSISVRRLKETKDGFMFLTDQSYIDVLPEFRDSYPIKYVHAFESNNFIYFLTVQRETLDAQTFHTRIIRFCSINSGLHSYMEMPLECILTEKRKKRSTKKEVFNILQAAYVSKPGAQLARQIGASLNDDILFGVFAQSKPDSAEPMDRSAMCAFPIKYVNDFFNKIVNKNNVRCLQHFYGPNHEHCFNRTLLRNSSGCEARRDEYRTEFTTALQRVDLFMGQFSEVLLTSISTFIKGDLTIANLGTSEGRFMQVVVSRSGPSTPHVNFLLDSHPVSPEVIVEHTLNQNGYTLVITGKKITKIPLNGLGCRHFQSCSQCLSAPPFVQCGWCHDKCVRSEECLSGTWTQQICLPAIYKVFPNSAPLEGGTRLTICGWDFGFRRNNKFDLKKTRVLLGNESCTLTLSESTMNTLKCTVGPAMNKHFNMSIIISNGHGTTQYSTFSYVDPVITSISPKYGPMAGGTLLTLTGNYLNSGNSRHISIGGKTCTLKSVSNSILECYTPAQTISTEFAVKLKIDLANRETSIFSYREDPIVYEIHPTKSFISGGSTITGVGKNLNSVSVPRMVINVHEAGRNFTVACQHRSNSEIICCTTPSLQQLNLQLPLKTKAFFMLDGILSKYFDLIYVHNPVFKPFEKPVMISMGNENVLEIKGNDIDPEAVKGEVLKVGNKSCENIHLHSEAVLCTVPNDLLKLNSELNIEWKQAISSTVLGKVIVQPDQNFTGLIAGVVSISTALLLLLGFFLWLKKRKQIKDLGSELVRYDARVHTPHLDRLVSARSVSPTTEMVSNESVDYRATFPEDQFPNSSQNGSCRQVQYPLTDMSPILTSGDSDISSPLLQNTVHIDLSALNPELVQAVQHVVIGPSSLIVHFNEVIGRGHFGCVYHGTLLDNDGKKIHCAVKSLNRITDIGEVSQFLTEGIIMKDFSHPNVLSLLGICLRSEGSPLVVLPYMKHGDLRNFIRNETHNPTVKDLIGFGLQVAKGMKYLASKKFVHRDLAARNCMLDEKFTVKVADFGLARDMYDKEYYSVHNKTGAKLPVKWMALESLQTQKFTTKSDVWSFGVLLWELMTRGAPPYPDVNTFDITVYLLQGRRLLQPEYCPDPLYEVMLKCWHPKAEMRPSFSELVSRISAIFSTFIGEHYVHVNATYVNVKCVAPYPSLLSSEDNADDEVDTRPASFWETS
Structure (SMILES),pIC50 [1],pIC50 [2]
"CC(c1c(Cl)ccc(F)c1Cl)c1c[nH]c2ncc(-c3ccc(C(=O)N4CCN(C)CC4)cc3)cc12 (centres unmarked) [Example 15, (4-{3-[1-(2,6-Dichloro-3-fluorophenyl)ethyl]-1H-pyrrolo[2,3-b]pyridin-5-yl}phenyl)-(4-methylpiperazin-1-yl)methanone]",6.00 to 7.00,≥ 7.00
"CC(c1c(Cl)ccc(F)c1Cl)c1c[nH]c2ncc(-c3ccccc3)cc12 (centres unmarked) [Example 19, 3-[1-(2,6-Dichloro-3-fluorophenyl)ethyl]-5-phenyl-1H-pyrrolo[2,3-b]-pyridine]",< 5.00,5.00 to 6.00
"CC(c1c(Cl)ccc(F)c1Cl)c1c[nH]c2ncc(-c3ccc(C(=O)NCCO)cc3)cc12 (centres unmarked) [Example 24, 4-{3-[1-(2,6-Dichloro-3-fluorophenyl)ethyl]-1H-pyrrolo[2,3-b]pyridin-5-yl}-N-(2-hydroxyethyl)benzamide]",6.00 to 7.00,6.00 to 7.00
"CC(c1c(Cl)ccc(F)c1Cl)c1c[nH]c2ncc(C3=CCN(S(N)(=O)=O)CC3)cc12 (centres unmarked) [Example 46, 4-{3-[1-(2,6-Dichloro-3-fluorophenyl)ethyl]-1H-pyrrolo[2,3-b]pyridin-5-yl}-3,6-dihydro-2H-pyridine-1-sulfonic acid amide]",6.00 to 7.00,6.00 to 7.00
"CC(c1c(Cl)ccc(F)c1Cl)c1c[nH]c2ncc(-c3cnn(C4CCN(C=O)CC4)c3)cc12 (centres unmarked) [Example 47, 4-(4-{3-[1-(2,6-Dichloro-3-fluorophenyl)ethyl]-1H-pyrrolo[2,3-b]pyridin-5-yl}-pyrazol-1-yl)-piperidine-1-carbaldehyde]",≥ 7.00,≥ 7.00
"CC(c1c(Cl)ccc(F)c1Cl)c1c[nH]c2ncc(-c3cnn(C4CCN(CC(F)(F)F)CC4)c3)cc12 (centres unmarked) [Example 29, 3-[1-(2,6-Dichloro-3-fluorophenyl)ethyl]-5-{1-[1-(2,2,2-trifluoroethyl)-piperidin-4-yl]-1H-pyrazol-4-yl}-1H-pyrrolo[2,3-b]pyridine]",6.00 to 7.00,6.00 to 7.00
"CNS(=O)(=O)c1ccc(-c2cnc3[nH]cc(C(C)c4c(Cl)ccc(F)c4Cl)c3c2)cc1 (centres unmarked) [Example 23, 4-{3-[1-(2,6-Dichloro-3-fluorophenyl)ethyl]-1H-pyrrolo[2,3-b]pyridin-5-yl}-N-methylbenzenesulfonamide]",5.00 to 6.00,6.00 to 7.00
"CC(=O)N1CC=C(c2cnc3[nH]cc(C(C)c4c(Cl)ccc(F)c4Cl)c3c2)CC1 (centres unmarked) [Example 39, 1-(4-{3-[1-(2,6-Dichloro-3-fluorophenyl)ethyl]-1H-pyrrolo[2,3-b]pyridin-5-yl}-3,6-dihydro-2H-pyridin-1-yl)-ethanone]",6.00 to 7.00,6.00 to 7.00
"C[C@H](c1c(Cl)ccc(F)c1Cl)c1c[nH]c2ncc(-c3cnn(C4CCN(C(N)=O)CC4)c3)cc12 [Example 72, 4-(4-{3-[(S)-1-(2,6-Dichloro-3-fluorophenyl)ethyl]-1H-pyrrolo[2,3-b]pyridin-5-yl}-pyrazol-1-yl)-piperidine-1-carboxamide]",≥ 7.00,≥ 7.00
"CC(c1c(Cl)ccc(F)c1Cl)c1c[nH]c2ncc(C3=CCN(C(=O)C(C)(C)O)CC3)cc12 (centres unmarked) [Example 42, 1-(4-{3-[1-(2,6-Dichloro-3-fluorophenyl)ethyl]-1H-pyrrolo[2,3-b]pyridin-5-yl}-3,6-dihydro-2H-pyridin-1-yl)-2-hydroxy-2-methylpropan-1-one]",6.00 to 7.00,6.00 to 7.00
"CC(c1c(Cl)ccc(F)c1Cl)c1c[nH]c2ncc(C3=CCN(C(=O)[C@@H](C)O)CC3)cc12 (stereo partly drawn) [Example 40, (R)-1-(4-{3-[1-(2,6-Dichloro-3-fluorophenyl)ethyl]-1H-pyrrolo[2,3-b]-pyridin-5-yl}-3,6-dihydro-2H-pyridin-1-yl)-2-hydroxypropan-1-one]",6.00 to 7.00,≥ 7.00
"CC(c1c(Cl)ccc(F)c1Cl)c1c[nH]c2ncc(-c3cnn(C4CCN(S(C)(=O)=O)CC4)c3)cc12 (centres unmarked) [Example 50, 3-[1-(2,6-Dichloro-3-fluorophenyl)-ethyl]-5-[1-(1-methanesulfonyl-piperidin-4-yl)-1H-pyrazol-4-yl]-1H-pyrrolo[2,3-b]pyridine]",6.00 to 7.00,≥ 7.00

# Second part, the compound after the results:
pIC50 [1],pIC50 [2],Structure (SMILES)
6.00 to 7.00,≥ 7.00,"CC(c1c(Cl)ccc(F)c1Cl)c1c[nH]c2ncc(-c3cnn(C(C)(C)CO)c3)cc12 (centres unmarked) [Example 65, 2-(4-{3-[1-(2,6-Dichloro-3-fluorophenyl)ethyl]-1H-pyrrolo[2,3-b]pyridin-5-yl}-pyrazol-1-yl)-2-methylpropan-1-ol]"
6.00 to 7.00,6.00 to 7.00,"CC(c1c(Cl)ccc(F)c1Cl)c1c[nH]c2ncc(-c3cn[nH]c3)cc12 (centres unmarked) [Example 26, 3-[1-(2,6-Dichloro-3-fluorophenyl)-ethyl]-5-(1H-pyrazol-4-yl)-1H-pyrrolo[2,3-b]pyridine]"
6.00 to 7.00,≥ 7.00,"CC(c1c(Cl)ccc(F)c1Cl)c1c[nH]c2ncc(-c3cnn(C(C)C)c3)cc12 (centres unmarked) [Example 30, 3-[1-(2,6-Dichloro-3-fluorophenyl)ethyl]-5-(1-isopropyl-1H-pyrazol-4-yl)-1H-pyrrolo[2,3-b]pyridine]"
6.00 to 7.00,6.00 to 7.00,"CC(c1c(Cl)ccc(F)c1Cl)c1c[nH]c2ncc(-c3cnn(C4CN(C(=O)N(C)C)C4)c3)cc12 (centres unmarked) [Example 59, 3-(4-{3-[1-(2,6-Dichloro-3-fluorophenyl)ethyl]-1H-pyrrolo[2,3-b]pyridin-5-yl}-pyrazol-1-yl)-azetidine-1-carboxylic acid dimethylamide]"
5.00 to 6.00,5.00 to 6.00,"CC(c1c(Cl)ccc(F)c1Cl)c1c[nH]c2ncc(-c3cnn(C(C)(C)C(=O)O)c3)cc12 (centres unmarked) [Example 61, 2-(4-{3-[1-(2,6-Dichloro-3-fluorophenyl)ethyl]-1H-pyrrolo[2,3-b]pyridin-5-yl}-pyrazol-1-yl)-2-methylpropionic acid]"
6.00 to 7.00,≥ 7.00,"C[C@H](c1c(Cl)ccc(F)c1Cl)c1c[nH]c2ncc(-c3cnn(C(C)(C)CO)c3)cc12 [Example 85, 2-(4-{3-[(S)-1-(2,6-Dichloro-3-fluorophenyl)ethyl]-1H-pyrrolo[2,3-b]-pyridin-5-yl}-pyrazol-1-yl)-2-methylpropan-1-ol]"
≥ 7.00,≥ 7.00,"C[C@H](c1c(Cl)ccc(F)c1Cl)c1c[nH]c2ncc(-c3cnn(C4CCNCC4)c3)cc12 [Example 80, 3-[(S)-1-(2,6-Dichloro-3-fluorophenyl)ethyl]-5-(1-piperidin-4-yl-1H-pyrazol-4-yl)-1H-pyrrolo[2,3-b]pyridine]"
≥ 7.00,≥ 7.00,"C[C@H](c1c(Cl)ccc(F)c1Cl)c1c[nH]c2ncc(-c3cnn(C[C@H](O)CO)c3)cc12 [Example 90, (S)-3-(4-{3-[(S)-1-(2,6-Dichloro-3-fluorophenyl)ethyl]-1H-pyrrolo[2,3-b]pyridin-5-yl}-pyrazol-1-yl)-propane-1,2-diol]"
6.00 to 7.00,≥ 7.00,"CNC(=O)C(C)(C)n1cc(-c2cnc3[nH]cc(C(C)c4c(Cl)ccc(F)c4Cl)c3c2)cn1 (centres unmarked) [Example 62, 2-(4-{3-[1-(2,6-Dichloro-3-fluorophenyl)ethyl]-1H-pyrrolo[2,3-b]pyridin-5-yl}-pyrazol-1-yl)-N-methylisobutyramide]"
6.00 to 7.00,6.00 to 7.00,"C[C@@H](c1c(Cl)ccc(F)c1Cl)c1c[nH]c2ncc(-c3cnn(C4CCNCC4)c3)cc12 [Example 81, 3-[(R)-1-(2,6-Dichloro-3-fluorophenyl)ethyl]-5-(1-piperidin-4-yl-1H-pyrazol-4-yl)-1H-pyrrolo[2,3-b]pyridine]"
